# US11497785B2, “Oral anti-parasitic composition” (Mars, Incorporated, priority 2013, dated 2022)
# Test system: Neospora caninum
# Assay: Proliferation assay of Neospora caninum in HFF cells, tritiated uracil incorporation
# Type: cell-based
# Conditions: positive control, read-out: ICSO
# Experimental: In order to solubilize the essential oils, the oils were diluted in dimethyl sulfoxide (DMSO) and then spread in the cell culture medium (DMEM) that was supplemented with 10% fetal calf serum (D10). DMSO was also used at a final concentration not exceeding 0.1%. Separate cultures of both parasites, Toxoplasma gondii and Neospora caninum, were prepared in vitro in human cell type HFF (Human Foreskin Fibroblasts), grown at 37° C. under 5% CO2 in a D10 medium. Both cultures were similar, the inoculum used for the various tests were the same, […] per well. It was observed that growing Neospora caninum is slower than that of Toxoplasma gondii.
# Proliferation of the parasite in the cells is measured by counting the specific radioactivity of the incorporated tritiated uracil and compared to the control without essential oil (100% proliferation). The test is performed in 24-well plates and the whole test lasts about 24 hours. The positive control is achieved using pyrimethamine (ICSO: 0.1 μg/mL).
# Values represent inhibition of proliferation.
# The inhibition of proliferation was measured by incorporating tritiated uracil in both Toxoplasma gondii and Neospora caninum and the viability of HFF cells was assessed using MTT assay.
compound,measurement,value
CCc1nc(N)nc(N)c1-c1ccc(Cl)cc1 [pyrimethamine],IC50,0.1 µg/mL
